{"source": "paper PMC4871480", "about": "“A Miniaturized Screen of a Schistosoma mansoni Serotonergic G Protein-Coupled Receptor Identifies Novel Classes of Parasite-Selective Inhibitors” (PLoS Pathogens, 2016)", "key": {"[1]": {"molecular_target": "T1, Sm.5HTR (Schistosoma mansoni, UniProt G4V5G4)", "T1 sequence (G4V5G4 entry or part of it)": "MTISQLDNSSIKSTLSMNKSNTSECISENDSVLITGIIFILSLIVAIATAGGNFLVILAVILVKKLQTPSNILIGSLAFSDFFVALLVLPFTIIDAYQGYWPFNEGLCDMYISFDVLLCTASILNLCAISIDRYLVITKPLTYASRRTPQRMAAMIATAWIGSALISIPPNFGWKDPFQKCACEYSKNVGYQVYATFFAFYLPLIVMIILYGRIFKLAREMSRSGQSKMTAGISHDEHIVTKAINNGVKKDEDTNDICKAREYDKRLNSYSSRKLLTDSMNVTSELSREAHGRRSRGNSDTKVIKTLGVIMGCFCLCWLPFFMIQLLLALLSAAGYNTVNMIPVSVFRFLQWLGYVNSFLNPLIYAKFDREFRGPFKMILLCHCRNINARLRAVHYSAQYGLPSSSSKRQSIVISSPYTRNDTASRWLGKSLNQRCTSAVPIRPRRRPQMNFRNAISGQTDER", "test": "cell-based", "format": "cell-based", "conditions": "for ligand type at Sm.5HTR: Fig 5F; for Emax: HEK293, read-out: 5-HT Emax; for agonist efficacy at Sm.5HTR: dose response, Fig 5A; for selectivity for Sm.5HTR over Hs.5HT7R: IC50 (Hs.5HT7R) / IC50 (Sm.5HTR)", "method": "(§1) HEK293 cells (ATCC CRL-1573.3) were cultured in DMEM supplemented with 10% fetal bovine serum (FBS), penicillin (100 units/ml), streptomycin (100 μg/ml), and L-glutamine (290 μg/ml). Cells were transiently transfected (ViaFect, Promega) as per the manufacturer’s protocol at a density of 2x10^6 cells per T-25 cell-culture flask. Cells were transfected with plasmids encoding GloSensor (Promega) and either Sm.5HTR (Smp_126730, GenBank accession number KF444051.1) or Sm.5HTRL (KX150867), bothGPCRs being codon optimized for mammalian expression, or Hs.5HT7a (GenBank accession number NM_000872.4, R&D Systems) subcloned into pCS2(-). Cell culture reagents were from Invitrogen. Epitope tagged constructs were used to verify expression, and untagged constructs used for all luminescence assays.\n(§2) For assays performed on adherent cells, HEK-293 cells were transferred one day post transfection to 96 well, solid white plates (Corning, cat # 3917) coated with 0.01% poly-L-lysine (Sigma Aldrich) at a density of 5 x 10^4 cells / well in DMEM supplemented with 1% dialyzed FBS (Gibco). After overnight culture (37°C/5% CO2), media was decanted and replaced with 100μL / well HBSS supplemented with 0.1% BSA, 20mM HEPES (pH 7.4) and GloSensor reagent. Plates were allowed to equilibrate at room temperature for two hours prior to performing luminescence assays (GloMax-Multi Detection System plate reader, Promega). Conditions for individual assays were described as per figure legends. The standard assay to detect changes in cAMP utilized the F22 sensor in media supplemented with IBMX (200μM). Ligands were added at a concentration of 20x per well for experiments (i.e. 5μl of drug solution added to 100μl of cells). […] For the resazurin reduction assay for cellular viability, cells were incubated with resazurin (final concentration, 10μM) and tested ligands with fluorescence measurements (560 nm excitation/590 nm emission) made at 1.5hr intervals."}, "[2]": {"molecular_target": "T2, Hs.5HT7R (Homo sapiens, UniProt P34969)", "T2 construct": "host or cells: HEK293 (ATCC CRL-1573.3), transient transfection, pCS2(-) vector", "T2 sequence (P34969 1-445 isoform P34969-2)": "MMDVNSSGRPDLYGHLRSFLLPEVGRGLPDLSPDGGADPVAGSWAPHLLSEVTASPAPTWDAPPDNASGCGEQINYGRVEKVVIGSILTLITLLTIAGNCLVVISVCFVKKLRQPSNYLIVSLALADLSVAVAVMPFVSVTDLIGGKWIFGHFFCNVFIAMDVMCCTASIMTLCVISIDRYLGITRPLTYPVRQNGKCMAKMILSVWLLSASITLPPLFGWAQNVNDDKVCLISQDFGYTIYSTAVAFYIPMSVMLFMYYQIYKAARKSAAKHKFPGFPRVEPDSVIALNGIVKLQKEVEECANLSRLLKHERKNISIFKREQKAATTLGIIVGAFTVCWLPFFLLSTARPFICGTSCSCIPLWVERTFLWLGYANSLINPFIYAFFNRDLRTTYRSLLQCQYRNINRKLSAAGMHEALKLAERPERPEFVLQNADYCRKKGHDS", "test": "GloSensor cAMP assay in HEK293 cells expressing Hs.5HT7R", "format": "cell-based", "conditions": "Fig 7 quadrant", "method": "as §1, §2"}, "[3]": {"system": "S. mansoni schistosomules", "test": "Schistosomule contractility assay", "format": "in vivo, Schistosoma mansoni", "method": "Biomphalaria glabrata (M-line) snails exposed to Schistosoma mansoni miracidia (Strain PR-1) were obtained from BEI Resources (Cat. number NR-21961) and cercaria were shed following exposure to light (1.5 hours). Cercaria were manually transformed into schistosomula by vortexing (3 x 45 seconds, each separated by 3 minutes on ice) and tails were removed by gradient centrifugation (24ml Percoll, 4ml 10X EMEM, 1.5ml penicillin-streptomycin, 1ml of 1M HEPES in 0.85% NaCl, 9.5ml distilled water) at 500g/15min at 4°C. Supernatant containing tails was discarded, and schistosomules were resuspended in Basch media and incubated (37°C, 5% CO2) overnight before conducting mobility assays. For contractility experiments, somules were incubated in 5-HT free Basch media to resolve a basal contractility rate. […] Schistosomules were incubated in 24 well plates (~200 schistosomules / 0.5mL media per well) for 30 minutes (37°C/5% CO2) prior to acquiring videos of schistosome movement (1 minute recordings / well) using a Nikon Coolpix 5700 camera affixed to a Nikon Eclipse TS100 microscope (10x objective). The WrmTrck plugin for ImageJ was used to quantify worm mobility. Briefly, the major axis of each schistosomule body length was extracted from the raw output of WrmTrck and an average length was determined for the duration of the recording. Contractions were quantified by determining the number of episodes during which the worm body length deviated from the average by over 20%. S. mansoni protocols were approved by the Iowa State University Institutional Biosafety Committee."}, "[4]": {"molecular_target": "T1, Sm.5HTR", "test": "Antagonist washout (inactivating antagonist) GloSensor assay on suspension cells", "format": "cell-based", "conditions": "10μM for 30 mins, washout, 5-HT response 1hr later", "method": "To test putative irreversible antagonists, assays on suspension cells were performed one day post transfection. […] Compounds were added at 10 μM, and after 30 minute incubation at room temperature cells were centrifuged (300 RCF, 5 minutes) and resuspended in fresh media. This wash step was repeated, and cells were resuspended in HBSS supplemented with 0.1% BSA, 20mM HEPES and GloSensor reagent. Cells were gently rotated to prevent aggregation and settling over the course of the two hour equilibration period, after which time they were transferred to 96 well plates at a density of 8 x 10^4 cells / 100μL per well and assays described for adherent cells."}, "[5]": {"molecular_target": "Sm.5HTRL (Schistosoma mansoni, UniProt A0A173FEI8)", "sequence (A0A173FEI8 entry or part of it)": "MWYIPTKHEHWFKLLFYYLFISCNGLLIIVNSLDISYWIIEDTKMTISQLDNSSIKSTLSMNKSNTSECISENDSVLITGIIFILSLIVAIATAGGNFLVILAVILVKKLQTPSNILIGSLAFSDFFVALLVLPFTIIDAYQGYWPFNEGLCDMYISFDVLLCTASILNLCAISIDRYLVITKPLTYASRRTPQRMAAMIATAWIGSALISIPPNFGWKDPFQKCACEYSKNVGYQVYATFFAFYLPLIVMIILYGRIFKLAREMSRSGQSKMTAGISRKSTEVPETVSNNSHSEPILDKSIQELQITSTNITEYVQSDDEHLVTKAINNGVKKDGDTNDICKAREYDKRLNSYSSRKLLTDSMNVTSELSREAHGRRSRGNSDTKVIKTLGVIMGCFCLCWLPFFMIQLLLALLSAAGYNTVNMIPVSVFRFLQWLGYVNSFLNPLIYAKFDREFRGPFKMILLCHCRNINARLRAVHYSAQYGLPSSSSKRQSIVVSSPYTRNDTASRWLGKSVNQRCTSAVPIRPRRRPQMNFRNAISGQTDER", "test": "GloSensor cAMP assay in HEK293 cells expressing Sm.5HTRL", "format": "cell-based", "method": "as §1, §2"}, "[6]": {"system": "adult schistosomes", "test": "Adult schistosome mobility assay", "format": "in vivo, Schistosoma mansoni", "conditions": "5-HT application", "method": "Female Swiss Webster mice exposed to Schistosoma mansoni cerceria (Strain PR-1) at 5–7 weeks old were obtained from BEI Resources (Cat. number NR-34792) and sacrificed 6–8 weeks post-infection. Mature S. mansoni were harvested from the mesenteric vasculature by portal perfusion. Briefly, mice were anesthetized in a CO2 chamber and sacrificed by cervical dislocation. Mice were perfused with sodium citrate (25mM) and adult schistosomes were harvested from the mesenteric veins. Schistosomes were washed in RPMI media containing penicillin (1000 units/mL), streptomycin (1000 μg/mL) and 25mM HEPES, then transferred to RPMI media supplemented with 2mM glutamine and 5% heat inactivated FBS. Worms were incubated overnight at 37°C, 5% CO2 before conducting assays. Recordings of adult schistosome movement were captured using a Zeiss Discovery v20 stereomicroscope and a QiCAM 12-bit cooled color CCD camera. Videos were acquired at a rate of four frames per second for one minute. Recordings of female worms were acquired at 7.6x magnification, 30 mm field of view and recordings of male worms were acquired at a 5.1x magnification, 45 mm field of view. Analysis was performed in ImageJ as described previously. Briefly, image (.tiff) stacks of each recording were imported and processed by converting to binary format so that pixel measurements represent area of the worms’ bodies. Mobility was quantified by measuring the difference in pixels resulting from subtracting the value of one frame (n) from those of the next frame in the sequence (n+1). This difference was expressed as a percentage of the pixels in the initial frame (n), providing a measurement of the worms’ movement over a period of 0.25 seconds. This calculation was performed for each frame in the video, and the results were averaged over the length of the recording. Values reported represent the mean (±) standard error of at least three independent experiments. Animal work was carried out with the oversight and approval of the Laboratory Animal Resources facility at the Iowa State University College of Veterinary Medicine."}, "[7]": {"conditions": "EC50 (agonist, cAMP generation), F22 sensor with IBMX"}}, "note": "“Also recorded” adds a separate entry of the source. Like-named read-outs stand apart in the source and are kept apart here.", "data": [{"smiles": "O=C(C1CCCCC1)N1CC(=O)N2CCc3ccccc3C2C1", "note": "(stereo not shown) [Praziquantel, praziquantel]", "values": [{"measurement": "ligand type at Sm.5HTR", "setting": "[1]", "value": "Inactive"}, {"measurement": "activity at Sm.5HTR", "setting": "[1]; antagonist/modulator screening, listed as PZQ", "value": "did not reveal any modulation of receptor activity; also recorded: did not yield any effect"}]}, {"smiles": "COc1cc2c(cc1OC)C1CC(=O)C(CC(C)C)CN1CC2", "note": "(stereo not shown) [tetrabenazine]", "values": [{"measurement": "potency (IC50) at Sm.5HTR", "setting": "[1]; Fig 7 quadrant", "value": "sub-μM potency"}, {"measurement": "GPCR inhibition profile compared with rotundine", "setting": "[1]; Sm.5HTR vs Hs.5HT7R, Fig F in S1 Text", "value": "selectivity for Sm.5HTR retained"}, {"measurement": "potency (IC50) at Hs.5HT7R", "setting": "[2]", "value": "supra-μM potency"}, {"measurement": "inhibition at 100 µM", "setting": "[3]; Schistosoma mansoni, read-out: inhibition of 5-HT evoked contractility", "value": "~50", "unit": "%"}]}, {"smiles": "CN1C[C@H](C(=O)N[C@]2(C)O[C@@]3(O)[C@@H]4CCCN4C(=O)[C@H](Cc4ccccc4)N3C2=O)C[C@@H]2c3cccc4[nH]cc(c34)C[C@H]21", "note": "[dihydroergotamine]", "values": [{"measurement": "EC50", "setting": "[1]; [7]", "value": 315, "unit": "nM"}, {"measurement": "ligand type at Sm.5HTR", "setting": "[1]", "value": "Agonist"}, {"measurement": "Emax", "setting": "[1]", "value": "52 ± 1", "unit": "%"}, {"measurement": "EC50", "setting": "[1]; pEC50 ± S.E.M", "value": 316, "unit": "nM"}]}, {"smiles": "CCN(CC)C(=O)[C@@H]1C=C2c3cccc4[nH]cc(c34)C[C@H]2N(C)C1", "note": "[LSD, lysergic acid diethylamide]", "values": [{"measurement": "ligand type at Sm.5HTR", "setting": "[1]", "value": "Antagonist"}, {"measurement": "Kb", "setting": "[1]; KB (affinity constant, Schild regression), right-shift of 5-HT dose-response", "value": 629, "unit": "nM"}, {"measurement": "inhibition of 5-HT evoked cAMP generation", "setting": "[1]; at higher concentrations (>10μM)", "value": "almost complete inhibition"}, {"measurement": "agonist efficacy at Sm.5HTR", "setting": "[1]", "value": "no efficacy"}, {"measurement": "Kb", "setting": "[1]; pKB ± S.E.M, Schild regression", "value": 631, "unit": "nM"}]}, {"smiles": "CN1C[C@H](CNC(=O)OCc2ccccc2)C[C@@H]2c3cccc4c3c(cn4C)C[C@H]21", "note": "[metergoline]", "values": [{"measurement": "ligand type at Sm.5HTR", "setting": "[1]", "value": "Antagonist"}, {"measurement": "Kb", "setting": "[1]; Schild regression, read-out: pKB ± S.E.M (converted)", "value": 4570, "unit": "nM"}, {"measurement": "agonist efficacy at Sm.5HTR", "setting": "[1]", "value": "no efficacy"}, {"measurement": "acute inhibition of 5-HT (10μM) response at Sm.5HTR", "setting": "[1]; drug 10μM, preincubation", "value": "Inhibition of 5-HT response"}, {"measurement": "Kb", "setting": "[1]; right-shift of 5-HT dose-response, read-out: KB (affinity constant, Schild regression)", "value": 4530, "unit": "nM"}, {"measurement": "inhibition of Sm.5HTR after antagonist wash-out", "setting": "[4]", "value": "long-lasting inhibition"}]}, {"smiles": "NCCc1c[nH]c2ccc(O)cc12", "note": "[5-HT, Serotonin]", "values": [{"measurement": "EC50", "setting": "[5]; F22 sensor with IBMX, read-out: EC50 (cAMP generation, Sm.5HTRL)", "value": "200 ± 30", "unit": "nM"}, {"measurement": "EC80", "setting": "[5]; HEK293", "value": 800, "unit": "nM"}, {"measurement": "greater sensitivity of Sm.5HTRL vs Sm.5HTR", "setting": "[5]; ratio of 5-HT EC50 values", "value": "~ 10 fold"}, {"measurement": "effect on movement of unpaired male and female worms", "setting": "[6]", "value": "significantly increased the movement"}, {"measurement": "effect on basal contractile rate of schistosomules", "setting": "[3]; exogenous addition, dose-dependent", "value": "increase in the basal contractile rate"}]}, {"smiles": "COc1cc2nc(N(C)CCCNC(=O)C3CCCO3)nc(N)c2cc1OC", "note": "(stereo not shown) [alfuzosin]", "values": [{"measurement": "selectivity for Sm.5HTR over Hs.5HT7R", "setting": "[1]", "value": "clear selectivity for Sm.5HTR; also recorded: clear bias toward Sm.5HTR"}, {"measurement": "inhibition of 5-HT evoked cAMP generation through Sm.5HTRL", "setting": "[5]; antagonists 10μM, 5-HT EC80 dose", "value": "inhibited 5-HT evoked cAMP generation"}]}, {"smiles": "CN1C[C@H](C(=O)N[C@]2(C)O[C@@]3(O)[C@@H]4CCCN4C(=O)[C@H](Cc4ccccc4)N3C2=O)C=C2c3cccc4[nH]cc(c34)C[C@H]21", "note": "[ergotamine]", "values": [{"measurement": "EC50", "setting": "[1]; [7]", "value": 232, "unit": "nM"}, {"measurement": "ligand type at Sm.5HTR", "setting": "[1]", "value": "Agonist"}, {"measurement": "Emax", "setting": "[1]", "value": "78 ± 2", "unit": "%"}, {"measurement": "EC50", "setting": "[1]; pEC50 ± S.E.M", "value": 229, "unit": "nM"}]}, {"smiles": "CNCCC(Oc1ccc(C(F)(F)F)cc1)c1ccccc1", "note": "(stereo not shown) [fluoxetine]", "values": [{"measurement": "selectivity for Sm.5HTR over Hs.5HT7R", "setting": "[1]", "value": "preferential selectivity toward Sm.5HTR"}]}, {"smiles": "CN1CCN(C2=Nc3cc(Cl)ccc3Nc3ccccc32)CC1", "note": "[clozapine]", "values": [{"measurement": "acute inhibition of 5-HT (10μM) response at Sm.5HTR", "setting": "[1]", "value": "Inhibition of 5-HT response"}]}]}
